Assay results taken from patent publication US8076487B2, “Pyridone derivative and herbicide” (Kumiai Chemical Industry Co., Ltd., priority 2006, dated 2011).

Experiments:
Type in all cases: in vivo
[1] = system: Japanese bulrush (Scirpus juncoides Roxb.); assay: Test Example 1: herbicidal effect by soil application to paddy field; conditions: paddy field soil application; active ingredient 1,000 g per 1 hectare; wettable powder added dropwise to water surface the day after sowing; examined on the 21st day after application
In short: (§1)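 Plants were sown in flooded (3 cm) paddy soil and evaluated for herbicidal effect 21 days after soil application in a greenhouse.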

[2] = system: early watergrass (Echinochloa oryzicola Vasing); assay: as above; conditions: paddy field soil application; active ingredient 1,000 g per 1 hectare; wettable powder added dropwise to water surface the day after sowing; examined on the 21st day after application
In short: as §1

[3] = system: heartshape false pickerelweed (Monochoria vaginalis (Burm.f.) C.Presl); assay: as above; conditions: paddy field soil application; active ingredient 1,000 g per 1 hectare; wettable powder added dropwise to water surface the day after sowing; examined on the 21st day after application
In short: as §1

[4] = system: velvetleaf (Abutilon theophrasti medicus); assay: Test Example 2: herbicidal effect by soil application to upland field; conditions: soil surface spray, upland field soil, 1,000 g active ingredient per hectare, 21st day after application
In short: (§2)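 A standard visual rating of herbicidal effect, made 21 days after treatment, gives the value. Treatment consisted of a uniform spray of water-diluted wettable powder on the soil covering newly sown seeds, equivalent to 1,000 g active ingredient and 1,000 liters per hectare.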

[5] = system: green foxtail (Setaria viridis (L.) P. Beauv.); assay: as above; conditions: soil surface spray, upland field soil, 1,000 g active ingredient per hectare, 21st day after application
In short: as §2

[6] = system: slender amaranth (Amaranthus viridis L.); assay: as above; conditions: soil surface spray, upland field soil, 1,000 g active ingredient per hectare, 21st day after application
In short: as §2

[7] = system: barnyardgrass (Echinochloa crus-galli (L.) P. Beauv. var. crus-galli); assay: as above; conditions: soil surface spray, upland field soil, 1,000 g active ingredient per hectare, 21st day after application
In short: as §2

[8] = system: velvetleaf (Abutilon theophrasti medicus); assay: Test Example 3: herbicidal effect by application to upland field (foliage treatment); conditions: foliage treatment, 1,000 g active ingredient per 1 hectare, 14th day after application, greenhouse
In short: (§3)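 Upland foliage test in greenhouse pots of field soil: seedlings sprayed at two weeks post-sowing with 1,000 g/ha active ingredient (wettable powder, 1,000 L water/ha). Scored 14 d after application.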

[9] = system: green foxtail (Setaria viridis (L.) P. Beauv.); assay: as above; conditions: foliage treatment, 1,000 g active ingredient per 1 hectare, 14th day after application, greenhouse
In short: as §3

[10] = system: slender amaranth (Amaranthus viridis L.); assay: as above; conditions: foliage treatment, 1,000 g active ingredient per 1 hectare, 14th day after application, greenhouse
In short: as §3

[11] = system: barnyardgrass (Echinochloa crus-galli (L.) P. Beauv. var. crus-galli); assay: as above; conditions: foliage treatment, 1,000 g active ingredient per 1 hectare, 14th day after application, greenhouse
In short: as §3

Row | Structure (SMILES) | herbicidal effect, Scirpus juncoides Roxb. [1] | herbicidal effect, Echinochloa oryzicola Vasing [2] | herbicidal effect, Monochoria vaginalis (Burm. f.) C. Presl [3] | herbicidal effect (index), Velvetleaf [4] | herbicidal effect (index), Green Foxtail [5] | herbicidal effect (index), Slender Amaranth [6] | herbicidal effect (index), Barnyardgrass [7] | herbicidal effect, Velvetleaf [8] | herbicidal effect, Green Foxtail [9] | herbicidal effect, Slender Amaranth [10] | herbicidal effect, Barnyardgrass [11]
1 | CCCn1c(C(F)(F)F)c(C)cc(C(=O)C2=C(O)C3CCC(C3)C2=O)c1=O (stereo not drawn) [III-18] | 5 (90% or more of herbicidal effect and crop phytotoxicity) | 5 (90% or more of herbicidal effect and crop phytotoxicity) | 5 (90% or more of herbicidal effect and crop phytotoxicity) | 5 (90% or more of herbicidal effect and crop phytotoxicity) | 3 (50 to less than 70% of herbicidal effect and crop phytotoxicity) | 5 (90% or more of herbicidal effect and crop phytotoxicity) | 5 (90% or more of herbicidal effect and crop phytotoxicity) | 5 (90% or more of herbicidal effect and crop phytotoxicity) | 5 (90% or more of herbicidal effect and crop phytotoxicity) | 5 (90% or more of herbicidal effect and crop phytotoxicity) | 5 (90% or more of herbicidal effect and crop phytotoxicity)
2 | COCCn1c(C(F)(F)F)ccc(C(=O)C2=C(O)C3CCC(C3)C2=O)c1=O (stereo not drawn) [III-19] | 5 (90% or more of herbicidal effect and crop phytotoxicity) | 5 (90% or more of herbicidal effect and crop phytotoxicity) | 5 (90% or more of herbicidal effect and crop phytotoxicity) | 5 (90% or more of herbicidal effect and crop phytotoxicity) | 5 (90% or more of herbicidal effect and crop phytotoxicity) | 5 (90% or more of herbicidal effect and crop phytotoxicity) | 5 (90% or more of herbicidal effect and crop phytotoxicity) | 5 (90% or more of herbicidal effect and crop phytotoxicity) | 5 (90% or more of herbicidal effect and crop phytotoxicity) | 5 (90% or more of herbicidal effect and crop phytotoxicity) | 5 (90% or more of herbicidal effect and crop phytotoxicity)
3 | CCOCCn1c(C(F)(F)F)ccc(C(=O)C2=C(O)C3CCC(C3)C2=O)c1=O (stereo not drawn) [III-20] | 5 (90% or more of herbicidal effect and crop phytotoxicity) | 5 (90% or more of herbicidal effect and crop phytotoxicity) | 5 (90% or more of herbicidal effect and crop phytotoxicity) | 5 (90% or more of herbicidal effect and crop phytotoxicity) | 5 (90% or more of herbicidal effect and crop phytotoxicity) | 5 (90% or more of herbicidal effect and crop phytotoxicity) | 5 (90% or more of herbicidal effect and crop phytotoxicity) | 5 (90% or more of herbicidal effect and crop phytotoxicity) | 5 (90% or more of herbicidal effect and crop phytotoxicity) | 5 (90% or more of herbicidal effect and crop phytotoxicity) | 5 (90% or more of herbicidal effect and crop phytotoxicity)
4 | COCC(C)n1c(C(F)(F)F)ccc(C(=O)C2=C(O)C3CCC(C3)C2=O)c1=O (stereo not drawn) [III-21] | 5 (90% or more of herbicidal effect and crop phytotoxicity) | 5 (90% or more of herbicidal effect and crop phytotoxicity) | 5 (90% or more of herbicidal effect and crop phytotoxicity) | 5 (90% or more of herbicidal effect and crop phytotoxicity) | 5 (90% or more of herbicidal effect and crop phytotoxicity) | 5 (90% or more of herbicidal effect and crop phytotoxicity) | 5 (90% or more of herbicidal effect and crop phytotoxicity) | 5 (90% or more of herbicidal effect and crop phytotoxicity) | 5 (90% or more of herbicidal effect and crop phytotoxicity) | 5 (90% or more of herbicidal effect and crop phytotoxicity) | 5 (90% or more of herbicidal effect and crop phytotoxicity)
5 | COCCCn1c(C(F)(F)F)ccc(C(=O)C2=C(O)C3CCC(C3)C2=O)c1=O (stereo not drawn) [III-22] | 5 (90% or more of herbicidal effect and crop phytotoxicity) | 5 (90% or more of herbicidal effect and crop phytotoxicity) | 5 (90% or more of herbicidal effect and crop phytotoxicity) | 5 (90% or more of herbicidal effect and crop phytotoxicity) | 5 (90% or more of herbicidal effect and crop phytotoxicity) | 5 (90% or more of herbicidal effect and crop phytotoxicity) | 5 (90% or more of herbicidal effect and crop phytotoxicity) | 5 (90% or more of herbicidal effect and crop phytotoxicity) | 5 (90% or more of herbicidal effect and crop phytotoxicity) | 5 (90% or more of herbicidal effect and crop phytotoxicity) | 5 (90% or more of herbicidal effect and crop phytotoxicity)
6 | COCCOCCn1c(C(F)(F)F)ccc(C(=O)C2=C(O)C3CCC(C3)C2=O)c1=O (stereo not drawn) [III-23] | 5 (90% or more of herbicidal effect and crop phytotoxicity) | 5 (90% or more of herbicidal effect and crop phytotoxicity) | 5 (90% or more of herbicidal effect and crop phytotoxicity) | 5 (90% or more of herbicidal effect and crop phytotoxicity) | 5 (90% or more of herbicidal effect and crop phytotoxicity) | 5 (90% or more of herbicidal effect and crop phytotoxicity) | 5 (90% or more of herbicidal effect and crop phytotoxicity) | 5 (90% or more of herbicidal effect and crop phytotoxicity) | 5 (90% or more of herbicidal effect and crop phytotoxicity) | 5 (90% or more of herbicidal effect and crop phytotoxicity) | 5 (90% or more of herbicidal effect and crop phytotoxicity)
